The values that follow come from US20250326753A1, “DUAL CXCR4-BTK INHIBITORS” (X4 Pharmaceuticals, Inc., priority 2022, published 2025).

Each structure is given as a SMILES string. pIC50: −log10 of the molar value.

In one experiment the target is T1, ITK (Homo sapiens, UniProt Q08881).
T1 construct: purchased Reaction Biology Europe GmbH
T1 sequence (Q08881 1-620): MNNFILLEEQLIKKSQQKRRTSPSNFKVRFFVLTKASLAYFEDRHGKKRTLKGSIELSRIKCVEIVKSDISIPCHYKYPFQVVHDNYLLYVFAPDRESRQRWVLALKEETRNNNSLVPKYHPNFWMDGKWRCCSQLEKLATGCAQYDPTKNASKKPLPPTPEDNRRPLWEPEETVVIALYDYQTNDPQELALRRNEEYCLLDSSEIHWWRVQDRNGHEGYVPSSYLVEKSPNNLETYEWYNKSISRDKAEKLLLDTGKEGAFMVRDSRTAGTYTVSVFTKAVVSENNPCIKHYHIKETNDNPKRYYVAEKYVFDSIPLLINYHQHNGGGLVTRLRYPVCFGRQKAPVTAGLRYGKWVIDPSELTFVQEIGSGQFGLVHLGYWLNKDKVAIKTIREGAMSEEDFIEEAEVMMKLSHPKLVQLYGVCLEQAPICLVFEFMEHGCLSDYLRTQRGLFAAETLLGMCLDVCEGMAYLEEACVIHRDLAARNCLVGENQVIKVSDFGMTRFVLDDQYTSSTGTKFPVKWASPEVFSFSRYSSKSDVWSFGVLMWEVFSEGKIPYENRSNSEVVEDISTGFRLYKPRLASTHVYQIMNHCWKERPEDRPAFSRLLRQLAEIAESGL
As to the kind of experiment: PanQinase kinase panel: ITK. It is filed as biochemical. As to conditions: read-out: INHIBITORY EFFECT @ 1 uM: ITK. The method, then:
(§1) Screening procedures were performed in accordance with the company's on-line protocol [accessed on-line Mar.
(§2) For each kinase, the median value of the cpm of three wells was defined as “low control” (n=3). This value reflects unspecific binding of radioactivity to the plate in the absence of a protein kinase but in the presence of the substrate. Additionally, for each kinase the median value of the cpm of three other wells was taken as the “high control,” i.e. full activity in the absence of any inhibitor (n=3). The difference between high and low control of each enzyme was taken as 100% activity.
(§3) As part of the data evaluation the low control of each kinase was subtracted from the high control value as well as from their corresponding “compound values”. The residual activity (in %) for each compound well was calculated by using the following formula: Res. Activity (%)=100×[(signal of compound−low control)/(high control−low control)].

The target in a further experiment is T2, BLK (Homo sapiens, UniProt P51451).
T2 construct: purchased Reaction Biology Europe GmbH
T2 sequence (P51451 whole entry): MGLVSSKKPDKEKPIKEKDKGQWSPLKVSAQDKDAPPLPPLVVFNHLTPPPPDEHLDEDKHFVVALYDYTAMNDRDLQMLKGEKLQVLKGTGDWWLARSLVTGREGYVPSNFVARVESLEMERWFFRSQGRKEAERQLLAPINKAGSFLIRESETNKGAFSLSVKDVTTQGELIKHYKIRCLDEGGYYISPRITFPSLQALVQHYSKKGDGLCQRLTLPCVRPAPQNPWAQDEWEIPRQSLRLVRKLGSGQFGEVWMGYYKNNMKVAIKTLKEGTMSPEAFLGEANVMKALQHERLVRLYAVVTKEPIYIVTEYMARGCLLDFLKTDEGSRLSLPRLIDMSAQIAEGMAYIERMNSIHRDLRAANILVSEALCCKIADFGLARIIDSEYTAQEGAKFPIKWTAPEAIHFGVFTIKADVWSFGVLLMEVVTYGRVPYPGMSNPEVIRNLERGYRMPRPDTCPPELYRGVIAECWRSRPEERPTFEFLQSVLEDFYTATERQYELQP
Put plainly: PanQinase kinase panel: BLK. The note with it: read-out: INHIBITORY EFFECT @ 1 uM: BLK. It is filed as biochemical. The method, then: as §1, §2
As part of the data evaluation the low control of each kinase was subtracted from the high control value as well as from their corresponding “compound values”.

Another experiment has as its target T3, INSR (Homo sapiens, UniProt P06213).
T3 construct: purchased Reaction Biology Europe GmbH
Put plainly: PanQinase kinase panel: INSR. It is filed as biochemical. The note with it: read-out: INHIBITORY EFFECT @ 1 uM: INSR. The method, then: as §1, §2, §3

The target in another experiment is T4, PKN3 (Homo sapiens, UniProt Q6P5Z2).
T4 construct: purchased Reaction Biology Europe GmbH
T4 sequence (Q6P5Z2 whole entry): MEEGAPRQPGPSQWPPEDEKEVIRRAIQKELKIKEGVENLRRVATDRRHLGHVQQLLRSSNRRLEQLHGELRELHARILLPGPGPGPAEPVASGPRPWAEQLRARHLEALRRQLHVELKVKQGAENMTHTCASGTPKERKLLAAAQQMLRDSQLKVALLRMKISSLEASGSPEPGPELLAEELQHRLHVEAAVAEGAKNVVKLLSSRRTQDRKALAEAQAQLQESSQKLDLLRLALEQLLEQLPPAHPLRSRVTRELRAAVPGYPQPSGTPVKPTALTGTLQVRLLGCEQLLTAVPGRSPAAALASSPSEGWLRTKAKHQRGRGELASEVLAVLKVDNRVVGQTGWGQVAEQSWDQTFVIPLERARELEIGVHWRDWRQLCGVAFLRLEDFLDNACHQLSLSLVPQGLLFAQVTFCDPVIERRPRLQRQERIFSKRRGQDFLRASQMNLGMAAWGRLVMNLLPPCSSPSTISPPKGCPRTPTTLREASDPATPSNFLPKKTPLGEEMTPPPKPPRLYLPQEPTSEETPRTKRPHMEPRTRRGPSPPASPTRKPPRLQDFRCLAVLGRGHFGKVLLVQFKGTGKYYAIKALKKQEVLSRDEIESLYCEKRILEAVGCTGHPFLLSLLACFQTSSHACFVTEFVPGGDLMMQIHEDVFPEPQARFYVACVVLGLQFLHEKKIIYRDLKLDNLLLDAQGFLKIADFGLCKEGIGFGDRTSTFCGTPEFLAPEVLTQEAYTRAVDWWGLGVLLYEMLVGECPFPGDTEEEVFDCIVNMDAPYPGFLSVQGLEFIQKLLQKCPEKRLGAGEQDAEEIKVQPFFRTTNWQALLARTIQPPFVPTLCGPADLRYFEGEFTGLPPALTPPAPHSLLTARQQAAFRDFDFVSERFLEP
As to the kind of experiment: PanQinase kinase panel: PKN3. It is filed as biochemical. As to conditions: read-out: INHIBITORY EFFECT @ 1 uM: PKN3. The procedure:
as §1, §2, §3

The target in a further experiment is T5, LRRK2 (Homo sapiens, UniProt Q5S007).
T5 construct: purchased Reaction Biology Europe GmbH
T5 sequence (Q5S007 whole entry): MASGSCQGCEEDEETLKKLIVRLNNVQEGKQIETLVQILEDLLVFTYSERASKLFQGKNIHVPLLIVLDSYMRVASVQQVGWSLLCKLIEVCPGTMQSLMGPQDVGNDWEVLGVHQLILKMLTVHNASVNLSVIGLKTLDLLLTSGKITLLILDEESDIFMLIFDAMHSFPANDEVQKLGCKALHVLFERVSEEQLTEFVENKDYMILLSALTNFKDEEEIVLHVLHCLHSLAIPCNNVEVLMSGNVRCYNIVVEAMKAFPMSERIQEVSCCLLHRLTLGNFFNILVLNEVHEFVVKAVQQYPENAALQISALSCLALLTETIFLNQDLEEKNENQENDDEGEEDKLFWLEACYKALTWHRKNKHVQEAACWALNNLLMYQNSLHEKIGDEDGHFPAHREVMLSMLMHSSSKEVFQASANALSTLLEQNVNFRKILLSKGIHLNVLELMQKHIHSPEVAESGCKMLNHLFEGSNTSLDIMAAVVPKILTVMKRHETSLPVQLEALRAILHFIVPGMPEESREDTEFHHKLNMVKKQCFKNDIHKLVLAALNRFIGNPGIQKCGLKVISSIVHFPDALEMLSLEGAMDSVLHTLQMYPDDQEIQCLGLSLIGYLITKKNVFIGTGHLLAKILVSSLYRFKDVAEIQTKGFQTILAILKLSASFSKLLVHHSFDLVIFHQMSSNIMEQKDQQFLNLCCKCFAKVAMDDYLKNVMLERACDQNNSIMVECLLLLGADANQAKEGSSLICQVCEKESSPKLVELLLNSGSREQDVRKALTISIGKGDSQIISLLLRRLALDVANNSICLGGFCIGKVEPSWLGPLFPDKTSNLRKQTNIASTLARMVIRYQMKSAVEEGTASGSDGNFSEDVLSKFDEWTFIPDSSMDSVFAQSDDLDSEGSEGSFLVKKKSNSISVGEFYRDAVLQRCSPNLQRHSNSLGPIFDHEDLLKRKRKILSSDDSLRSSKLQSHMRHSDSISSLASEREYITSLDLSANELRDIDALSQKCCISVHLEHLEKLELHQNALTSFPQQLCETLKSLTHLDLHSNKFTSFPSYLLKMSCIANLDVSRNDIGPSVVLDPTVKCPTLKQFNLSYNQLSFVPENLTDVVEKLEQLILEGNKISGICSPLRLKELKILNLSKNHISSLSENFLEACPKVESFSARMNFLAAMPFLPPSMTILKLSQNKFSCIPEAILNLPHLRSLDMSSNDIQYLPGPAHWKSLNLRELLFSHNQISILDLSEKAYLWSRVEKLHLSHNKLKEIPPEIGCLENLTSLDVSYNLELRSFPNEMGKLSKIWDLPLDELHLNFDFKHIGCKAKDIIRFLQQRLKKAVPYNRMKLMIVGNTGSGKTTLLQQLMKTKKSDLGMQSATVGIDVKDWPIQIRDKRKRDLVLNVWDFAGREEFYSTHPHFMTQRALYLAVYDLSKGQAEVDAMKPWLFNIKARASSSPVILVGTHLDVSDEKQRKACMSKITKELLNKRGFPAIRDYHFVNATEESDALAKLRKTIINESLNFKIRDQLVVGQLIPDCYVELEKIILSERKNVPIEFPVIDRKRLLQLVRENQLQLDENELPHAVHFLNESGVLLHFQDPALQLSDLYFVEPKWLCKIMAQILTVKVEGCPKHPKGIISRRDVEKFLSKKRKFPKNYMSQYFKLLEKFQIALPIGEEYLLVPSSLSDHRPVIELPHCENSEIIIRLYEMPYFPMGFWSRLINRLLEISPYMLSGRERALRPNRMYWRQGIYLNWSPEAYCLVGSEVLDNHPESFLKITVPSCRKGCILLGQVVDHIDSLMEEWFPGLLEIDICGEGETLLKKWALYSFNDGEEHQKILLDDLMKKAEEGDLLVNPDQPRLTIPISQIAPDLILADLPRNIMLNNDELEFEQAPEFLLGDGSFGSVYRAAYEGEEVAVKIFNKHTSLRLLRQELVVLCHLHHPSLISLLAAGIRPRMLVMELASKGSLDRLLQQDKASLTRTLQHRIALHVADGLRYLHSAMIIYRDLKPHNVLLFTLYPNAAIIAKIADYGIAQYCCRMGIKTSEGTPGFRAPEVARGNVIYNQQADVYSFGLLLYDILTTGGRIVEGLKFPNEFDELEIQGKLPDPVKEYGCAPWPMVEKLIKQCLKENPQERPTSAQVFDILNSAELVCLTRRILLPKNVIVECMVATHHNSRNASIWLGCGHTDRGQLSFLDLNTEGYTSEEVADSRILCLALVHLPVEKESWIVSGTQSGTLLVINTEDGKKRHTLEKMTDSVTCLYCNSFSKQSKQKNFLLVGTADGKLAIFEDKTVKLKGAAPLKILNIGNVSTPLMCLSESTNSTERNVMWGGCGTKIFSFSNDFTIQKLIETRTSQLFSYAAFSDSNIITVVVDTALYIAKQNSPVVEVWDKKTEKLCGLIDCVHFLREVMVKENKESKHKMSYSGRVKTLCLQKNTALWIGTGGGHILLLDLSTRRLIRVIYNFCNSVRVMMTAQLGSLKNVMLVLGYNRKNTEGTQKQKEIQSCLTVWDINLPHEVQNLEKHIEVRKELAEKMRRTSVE
As to the kind of experiment: PanQinase kinase panel: LRRK2. It is filed as biochemical. The note with it: read-out: INHIBITORY EFFECT @ 1 uM: LRRK2. The procedure: as §1, §2, §3

Experiment [1] addresses T6, BTK (Bruton tyrosine kinase) (Homo sapiens, UniProt Q06187).
T6 construct: GST or His (the text leaves open which); purchased Reaction Biology Europe GmbH Lot 012,11; host or cells: Sf9 insect cells or E. coli (not resolved)
As to the kind of experiment: BTK screening assay (33PanQinase Activity Assay, radiometric). The class given is biochemical. As to conditions: Inhibition of BTK, radiometric 33PanQinase Activity Assay, 3 μM ATP, 10 concentrations in singlicate, top 10 μM; read-out: 33PanQinase ® Radiometric IC50.

The target of a further experiment is CXCR4 (Homo sapiens, UniProt P61073). As to the kind of experiment: Chemokine (CXCL12-AF647) binding inhibition assay, Jurkat cells expressing CXCR4. As to conditions: CXCL12-AF647 25 ng/ml, read-out: IC50 CXCL-12 binding Jurkat. The essentials:
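Jurkat cells preincubated 15 min at RT with compounds in HBSS/20 mM HEPES/0.2% BSA, pH 7.4, then exposed to CXCL12-AF647 (25 ng/ml) for 30 min at RT; washed, fixed and read by flow cytometry (FL4). Inhibition calculated from MFI normalised to unlabeled and ligand-only controls.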

Sequence of CXCR4 (P61073 whole entry): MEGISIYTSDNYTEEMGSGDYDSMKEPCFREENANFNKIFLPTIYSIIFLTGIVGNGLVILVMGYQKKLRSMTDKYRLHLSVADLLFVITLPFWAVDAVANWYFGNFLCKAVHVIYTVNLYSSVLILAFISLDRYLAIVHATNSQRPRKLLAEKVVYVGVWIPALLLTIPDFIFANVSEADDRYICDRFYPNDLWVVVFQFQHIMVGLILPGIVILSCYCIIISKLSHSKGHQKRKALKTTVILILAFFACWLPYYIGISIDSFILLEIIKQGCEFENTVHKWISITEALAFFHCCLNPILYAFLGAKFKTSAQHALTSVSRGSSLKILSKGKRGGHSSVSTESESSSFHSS
T6 sequence (Q06187 whole entry): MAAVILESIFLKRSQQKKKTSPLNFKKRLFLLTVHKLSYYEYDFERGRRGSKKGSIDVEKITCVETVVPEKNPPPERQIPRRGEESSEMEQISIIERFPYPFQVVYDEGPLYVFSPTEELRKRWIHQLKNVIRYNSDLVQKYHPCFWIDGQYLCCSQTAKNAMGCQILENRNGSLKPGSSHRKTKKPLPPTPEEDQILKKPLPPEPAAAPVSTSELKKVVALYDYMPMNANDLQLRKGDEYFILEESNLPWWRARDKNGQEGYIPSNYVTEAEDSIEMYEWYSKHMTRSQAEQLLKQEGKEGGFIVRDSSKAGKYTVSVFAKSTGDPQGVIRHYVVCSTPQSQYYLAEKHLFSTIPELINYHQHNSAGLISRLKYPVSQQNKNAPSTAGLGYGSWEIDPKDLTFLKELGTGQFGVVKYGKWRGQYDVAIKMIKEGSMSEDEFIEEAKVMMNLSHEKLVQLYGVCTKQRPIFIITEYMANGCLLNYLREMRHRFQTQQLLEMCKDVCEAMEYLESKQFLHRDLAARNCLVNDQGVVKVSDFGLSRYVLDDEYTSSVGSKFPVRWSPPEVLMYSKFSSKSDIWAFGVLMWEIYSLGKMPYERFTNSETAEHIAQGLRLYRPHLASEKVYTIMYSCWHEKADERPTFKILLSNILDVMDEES

Regarding `O=C(c1ccc(Oc2ccccc2)cc1Cl)c1c[nH]c2ncnc(N[C@@H]3CC[C@@H](CO)OC3)c12` [ARQ-531, (2-chloro-4-phenoxyphenyl) (4-(((3R,6S)-6-(hydroxymethyl)tetrahydro-2H-pyran-3-yl)amino)-7H-pyrrolo[2,3-d]pyrimidin-5-yl) methanone], the inhibition at 1 µM lay in the range of 50 to 69% on ITK; 90 to 100% on BLK; 70 to 89% at INSR; 50 to 69% at PKN3; 50 to 69% at LRRK2.
By pIC50 is commonly meant −log10 of the IC50, conventionally taken in molar units. For `Cc1cccnc1[C@H]1CCC[C@@H](c2ncccc2C)N1CCN1CCN(C(=O)c2ccc(-c3cc4c(-c5cccc(NC(=O)c6ccccc6)c5C)ncnc4[nH]3)cc2)CC1` [Compound I-10, N-(3-(6-(4-(4-(2-((2R,6S)-2,6-bis(3-methylpyridin-2-yl)piperidin-1-yl)ethyl)piperazine-1-carbonyl)phenyl)-7H-pyrrolo[2,3-d]pyrimidin-4-yl)-2-methylphenyl)benzamide], the pIC50 (in experiment [1]; at CXCR4) was 7.00 to 9.00 in each case. Further, the inhibition at 1 µM on ITK is under 50%; on BLK, under 50%; at INSR, under 50%; at PKN3, 50 to 69%; at LRRK2, under 50%.
With `Cc1cc(-c2ccnc(Nc3cnn(CCN4[C@@H](c5ncccc5C)CCC[C@H]4c4ncccc4C)c3)n2)ccc1CNC(=O)N1CC(OC(C)C)C1` [Compound I-11], the pIC50 (in experiment [1]; on CXCR4) was 7.00 to 9.00 each time.
Consider `Cc1cccnc1[C@H]1CCC[C@@H](c2ncccc2C)N1CCCCNC(=O)[C@@H]1CC[C@@H](Nc2ncnc3[nH]cc(C(=O)c4ccc(Oc5ccccc5)cc4Cl)c23)CO1` [Compound I-16], for which the pIC50 (in experiment [1]; at CXCR4) was 7.00 to 9.00 in each case.
On to `Cc1cccnc1[C@H]1CCC[C@@H](c2ncccc2C)N1CCCCNC(=O)OC[C@@H]1CC[C@@H](Nc2ncnc3[nH]cc(C(=O)c4ccc(Oc5ccccc5)cc4Cl)c23)CO1` [Compound I-18], for which the results for the pIC50 (in experiment [1]; at CXCR4) were 7.00 to 9.00 and 6.00 to 7.00, respectively.
Consider `COc1ccc(F)cc1C(=O)NCc1ccc(-c2nn([C@@H](C)C(F)(F)F)c(N)c2C(N)=O)cc1` [LOXO-305, pirtobrutinib], for which the inhibition at 1 µM on ITK, at BLK, at INSR, at PKN3 and at LRRK2 was under 50% throughout.
Take `C=CC(=O)N1CCC([C@@H]2CCNc3c(C(N)=O)c(-c4ccc(Oc5ccccc5)cc4)nn32)CC1` [Zanubrutinib, (7S)-2-(4-phenoxyphenyl)-7-(1-prop-2-enoylpiperidin-4-yl)-4,5,6,7-tetrahydropyrazolo[1,5-a]pyrimidine-3-carboxamide]: the inhibition at 1 µM on ITK, on INSR, on PKN3 and on LRRK2 was under 50% in each case.
